Numbered stars: 1 amine (or outer) side, 2 acyl side, 3 side chain; on linkers, the order of the positions; unused ones are H or OH. Square brackets hold non-standard residues; d marks the D form. Peptide text beside a SMILES is read from it. X6 = CN(C)C[C@H]1C=NN([*:1])[C@H](C(=O)[*:2])C1; X5 = O=C1CC[C@@H](C(=O)[*:2])N([*:1])N1; dPiz(1,6-dehydro) = O=C(O)[C@H]1CCC=NN1; X2 = CN1CCC[C@@H](C(=O)[*:2])N1[*:1]; X1 = CN1CCC[C@H](C(=O)[*:2])N1[*:1]; X7 = O=C([C@@H]1C=CC=NN1[*:1])[*:2]; X4 = O=C([C@@H]1CCCNN1[*:1])[*:2]; X3 = O=C([C@H]1CCCNN1[*:1])[*:2]; dNMeF = CN[C@H](Cc1ccccc1)C(=O)O
Experiments:
Oxytocin receptor = molecular target: T1, Oxytocin receptor (Rattus norvegicus, UniProt P70536); assay: Binding affinity against oxytocin receptor in rat uterus
T1 sequence (P70536 whole entry): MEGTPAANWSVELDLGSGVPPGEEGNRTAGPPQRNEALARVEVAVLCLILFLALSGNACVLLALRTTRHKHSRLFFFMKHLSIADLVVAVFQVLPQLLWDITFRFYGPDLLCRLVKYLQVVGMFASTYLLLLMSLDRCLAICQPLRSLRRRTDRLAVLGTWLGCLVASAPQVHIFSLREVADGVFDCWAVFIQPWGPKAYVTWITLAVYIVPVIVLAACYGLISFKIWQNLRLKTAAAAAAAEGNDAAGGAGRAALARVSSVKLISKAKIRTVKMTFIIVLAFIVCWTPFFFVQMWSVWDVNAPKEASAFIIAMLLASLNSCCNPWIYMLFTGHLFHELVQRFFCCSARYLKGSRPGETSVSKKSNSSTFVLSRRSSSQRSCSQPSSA

Vasopressin V2 receptor = Vasopressin V2 receptor (Rattus norvegicus, UniProt Q00788); assay: Binding affinity against Vasopressin receptor in rat kidney medulla
Chain of Vasopressin V2 receptor (Q00788 whole entry): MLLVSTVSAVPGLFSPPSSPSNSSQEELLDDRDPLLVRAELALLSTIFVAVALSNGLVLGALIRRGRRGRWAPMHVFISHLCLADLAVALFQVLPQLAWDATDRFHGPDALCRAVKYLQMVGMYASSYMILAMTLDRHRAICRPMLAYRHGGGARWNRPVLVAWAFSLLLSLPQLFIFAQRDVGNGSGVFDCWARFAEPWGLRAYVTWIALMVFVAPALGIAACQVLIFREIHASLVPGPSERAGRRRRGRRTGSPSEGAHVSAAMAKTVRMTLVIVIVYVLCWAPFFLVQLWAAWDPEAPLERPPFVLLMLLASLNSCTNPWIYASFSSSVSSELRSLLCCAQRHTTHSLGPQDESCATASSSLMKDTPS

Q: `CC[C@H](C)[C@@H]1NC[C@@H](Cc2ccccc2)NC(=O)[C@@H]2CCCN2C(=O)[C@@H](Cc2ccccc2)N(C)C(=O)[C@@H]2CCC=NN2C(=O)[C@H]2CCC=NN2C1=O` was tested. Which Ki (Oxytocin receptor) did it give?
A: The Ki was over 30000 nM.

Q: What about the Ki (Vasopressin V2 receptor) of the same compound?
A: Its Ki is 30000 nM.

Q: Which results are given for `CC[C@@H](C)[C@@H]1/N=C(\S)[C@@H](Cc2ccccc2)NC(=O)[C@@H]2CCCN2C(=O)[C@@H](Cc2ccccc2)N(C)C(=O)[C@@H]2CCC=NN2C(=O)[C@H]2CCC=NN2C1=O`?
A: Ki (Oxytocin receptor): 1.1 nM; Ki (Vasopressin V2 receptor): 70 nM

Q: Which results are given for `CC[C@H](C)[C@@H]1NC(=O)[C@@H](Cc2ccccc2)NC(=O)[C@@H]2CCCN2C(=O)[C@@H](Cc2ccccc2)N(C)C(=O)[C@@H]2CCC(=O)NN2C(=O)[C@H]2CCCNN2C1=O` (cyclo(I[X3][X5][dNMeF]P[dF]))?
A: Ki (Oxytocin receptor): 89 nM; Ki (Vasopressin V2 receptor): 7800 nM

Q: What does the source list for `CC[C@H](C)[C@@H]1NC(=O)[C@@H](Cc2ccccc2)NC(=O)[C@@H]2CCCN2C(=O)[C@@H](Cc2ccccc2)N(C)C(=O)[C@@H]2CCC(=O)NN2C(=O)[C@H]2CCC=NN2C1=O` (cyclo(I[dPiz(1,6-dehydro)][X5][dNMeF]P[dF]))?
A: Ki (Oxytocin receptor): 9.6 nM; Ki (Vasopressin V2 receptor): 6800 nM

Q: What does the source list for `CC[C@H](C)[C@@H]1NC(=O)[C@@H](Cc2ccccc2)NC(=O)[C@@H]2CCCN2C(=O)[C@@H](Cc2ccccc2)N(C)C(=O)[C@@H]2CCCNN2C(=O)[C@H]2CCCNN2C1=O` (cyclo([X3][X4][dNMeF]P[dF]I))?
A: Ki (Oxytocin receptor): 30 nM; Ki (Vasopressin V2 receptor): 1500 nM

Q: What does the source list for `CC[C@H](C)[C@@H]1NC(=O)[C@@H](Cc2ccccc2)NC(=O)[C@@H]2CCCN2C(=O)[C@@H](Cc2ccccc2)N(C)C(=O)[C@@H]2C[C@@H](CN(C)C)C=NN2C(=O)[C@H]2CCC=NN2C1=O` (cyclo(I[dPiz(1,6-dehydro)][X6][dNMeF]P[dF]))?
A: Ki (Oxytocin receptor): 3.4 nM; Ki (Vasopressin V2 receptor): 1100 nM

Q: For `CC[C@H](C)[C@H]1C(=O)N2NCCC[C@@H]2C(=O)N2NCCC[C@H]2C(=O)N(C)[C@H](Cc2ccccc2)C(=O)N2CCC[C@H]2C(=O)N[C@H](Cc2ccccc2)C(=O)N1O`, which Ki (Oxytocin receptor) is on record?
A: The Ki was 150 nM.

Q: What about the Ki (Vasopressin V2 receptor) of the same compound?
A: Its Ki is 3400 nM.

Q: What does the source list for `CC[C@H](C)[C@@H]1NC(=O)[C@@H](Cc2ccccc2)NC(=O)[C@@H]2CCCN2C(=O)[C@@H](Cc2ccccc2)N(C)C(=O)[C@@H]2CCCN(C)N2C(=O)[C@H]2CCCN(C)N2C1=O` (cyclo(I[X1][X2][dNMeF]P[dF]))?
A: Ki (Oxytocin receptor): 2500 nM; Ki (Vasopressin V2 receptor): 3100 nM

Q: Which Ki (Oxytocin receptor) does the source give for `CC[C@H](C)[C@@H]1NC(=O)[C@@H](Cc2ccccc2)NC(=O)[C@@H]2CCCN2C(=O)[C@@H](Cc2ccccc2)N(C)C(=O)[C@@H]2C=CC=NN2C(=O)[C@H]2CCC=NN2C1=O` (cyclo(I[dPiz(1,6-dehydro)][X7][dNMeF]P[dF])) here?
A: The Ki was 8.1 nM.

Q: And the Ki (Vasopressin V2 receptor)?
A: Its Ki is 580 nM.

— ChEMBL document CHEMBL1124890 (J Med Chem, 1990)
